Laboratory results reported in patent US5672603A, “Apoptosis regulating composition” (Otsuka Pharmaceutical Co., Ltd., priority 1991, dated 1997).
Where “and” joins values, the source holds several entries; their conditions need not be identical. Identical values can stand only once.

Key:
[1] = system: B16 melanoma cells; assay: Effect on experimental model of pulmonary metastasis of B16 melanoma cells; format: in vivo, mouse (C57BL/6 mice); settings: for No. of colonies in lungs, Mean: control 86.7; for No. of colonies in lungs, individual mice: 4 days
Description: B16 mouse melanoma cells [Koren, S. and Fleischmann, W. R., J. Interferon Research, i, 473-482 (198)], 2×10^6 cells, were suspended in Eagle's MEM medium (Nissui Pharmaceutical Co., Ltd.) supplemented with 10% FBS (Gibco) to which 3 or 10 μg/ml of Compound 1 was previously added or not added. The suspension was cultured in a 75-cm^2 flask (Corning) in an incubator (National Appliance Model 15300) at 37° C. under 5% carbon dioxide for 4 days. Then, the cells were washed with Dulbecco's PBS solution (Nissui pharmaceutical Co., Ltd.), and 0.05% trypsin (Flow Laboratories) was added to detach the cells from the flask. The cells were washed centrifugally (Hitachi 05PR-22, 1200 rpm, 5 minutes) twice and after addition of 0.2% trypan blue (Wako Pure Chemical Industries Ltd.), viable cells were counted using a hemocytometer (No. J7796, Kayagaki Works) and the cells were diluted with Hank's solution (Flow Laboratories)to a concentration of 5×10^6 cells/ml.
The cells obtained as above were transplanted, in a population of 3×10^5 cells each, into groups of 7 C57BL/6 mice (7 weeks old, female, purchased from Charles River Japan, Inc.) through the tail vein. Twelve days later, the mice were killed by cervical dislocation and the number of colonies metastatized to the lungs was determined.

[2] = system: W/BF1 :(NZW×BXSB)F1 mice with spontaneous autoimmune disease; assay: Life-prolonging effect in autoimmune disease mice; format: in vivo
Excerpt: W/BF1 :(NZW×BXSB)F1 mice are mice with spontaneous autoimmune disease. They are known as an animal model of lupus nephritis accompanied, with high frequency, by hypertension and myocardial infarction [Hang, L. M., et al., J. Exp. Med., 154, 216-221 (1981)]. They develop anti-platelet antibodies with increasing age, showing marked thrombocytopenia, and are used as an animal model of idiopathic thrombocytopenic purpura (ITP) as well [Oyaizu, N., et al., J. Exp. Med. 167, 2017-2077 (1988)]. It has been reported that more than 90% of the model animals die of myocardial infarction or renal failure within 8 months of birth [Ikehara, S., Metabolism and Disease, (Suppl) 26, 169-176 (1989)].
W/BF1 :(NZW×BXSB)F1 mice were used at the age of 14 weeks (purchased from Kiwa Experimental Animal). Groups of 10 mice were used in each experiment.
The mice in respective groups were given a diet (Oriental Yeast), which is usually given to this kind of mice, and water.
Compound 1 (Lot No. 9D87M) was used as suspended in a 0.5% solution of carborymethylcellulose (CMC, Cellogan). Compound 1 was administered to mice by oral garage in doses of 100 and 300 mg/kg body weight/day for 6 weeks from 14 weeks of age to 20 weeks of age according to the 5-day administration and 2-day cessation schedule. As a control, an untreated group was provided. […] Statistic analysis was performed by the generalized Wilcoxon test with respect to the untreated group.
In the figure, the ordinate represents the survival rate (%) and the abscissa represents the age in weeks (14 weeks to 20 weeks).

[3] = system: M12 melanoma cells; assay: M12 melanoma cell growth inhibition in nude mice; format: in vivo, Balb/c nude mice; settings: 10 mg/kg daily oral, day 25 to day 55; FIG. 2; * p<0.05
Description: This study was performed in groups of 10 Balb/c nude mice.
On the first day of the experiment (day 0), 2×10^6 M12 melanoma cells were transplanted into mice in the test group. When the tumor volume reached 100 mm^3, the test Compound 1 was administered orally in doses of 10 mg/kg daily to the mice. This treatment was carried out 30 times from day 25 to day 55. The tumor diameter was measured using calipers everyday after transplantation of tumor cells. The tumor volume was calculated according to the following formula.
Tumor volume (mm^3)=(long diameter)×(short diameter)^2 ×1/2

[4] = system: HL-60 cells; assay: Differentiation of HL-60 cells (Giemsa and esterase staining); format: cell-based, human; settings: day 27
Description: The concentration of HL-60 cells was adjusted to 1×10^5 cells/ml using RPMI-1640 medium (GIBCO) supplemented with 10% of FCS (fetal calf serum; GIBCO).
Giemsa stain solution was prepared by diluting Giemsa reagent (Merck) 50-100 times with phosphate buffer (pH 6.4).
A reagent for esterase staining (Muto Kagaku) was used according to the naphthol AS-D chloroacetate method.
HL-60 cells prepared as described above under (1) were cultivated in the same manner as in a). Cells collected on day 27 were placed on a slide glass and subjected to Giemsa staining, followed by morphological observation under a microscope. […] The results of esterase staining by the naphthol AS-D chloroacetate method indicated differentiation of 70-85% of HL-60 cells into granulocytes.

[5] = system: HL-60 cells; assay: Induction of differentiation of HL-60 cells (CD11b expression, flow cytometry); format: cell-based, human; parameters: reference not given here; settings: 30 μg/ml; 3 days; CD11b fluorescence
Description: HL-60 cells were cultivated in RPMI-1640 medium supplemented with 10% of FCS at 37° C. under 5% CO2, and the cell concentration was adjusted to 5×10^4 cells/ml.
Then, the above-mentioned medium containing 30 μg/ml of each test compound was added to each well of 6-well microplates (Costar), followed by 3 days of incubation at 37° C. under 5% CO2. In a control group, the above medium alone was added and incubation was performed in the same manner. Thereafter, each cultured cell suspension was sampled into an Eppendorf tube and, after staining with 0.2% trypan blue-containing phosphate buffer, viable cells were counted using a hematocytometer.
The above cells were adjusted to 1×10^7 cells/ml. To 100 μl of the cell suspension was added 5 μl of a solution of fluorescein isothiocyanate (FITC)-labeled anti-human CD11b antibody (Mol; Coulter) and the reaction was allowed to proceed on ice in the dark for 30 minutes. Then, cells were washed twice with PBS (phosphate-buffered saline; Nissui Pharmaceutical) containing 0.1% of BSA (bovine serum albumin; Sigma), finally suspended in 500 μl of the BSA-containing PBS and measured for fluorescence intensity by flow cytometry using Profile II (Coulter).

`COc1ccc(C(=O)N2CCN(c3ccc4c(c3)CCC(=O)N4)CC2)cc1OC` [Compound 1, 6-[4-(3,4-Dimethoxybenzoyl)-1-piperazinyl]-3,4-dihydrocarbostyril] was tested, and the “No. of colonies in lungs, Mean” value ([1]; 3 μg/ml, *P < 0.05) was 10.0 colonies, the “No. of colonies in lungs, Mean” value ([1]; 10 μg/ml) was 34.7 colonies and the “Inhibition of pulmonary metastasis (in words)” value ([1]; 3 or 10 μg/ml) was “evident inhibition of pulmonary metastasis”. For the same compound, the “No. of colonies in lungs, individual mice” value ([1]; cells pre-incubated with 3 μg/ml) was 14 colonies and 7 colonies and 11 colonies and 6 colonies and 8 colonies and 24 colonies and 0 colonies, the “No. of colonies in lungs, individual mice” value ([1]; cells pre-incubated with 10 μg/ml) was 17 colonies and 43 colonies (2×) and 65 colonies and 7 colonies and 46 colonies and 22 colonies and the “Deaths till 20 weeks of age” value ([2]; 100 mg/kg/day oral, untreated: two, one and three dead at 17, 18, 19 weeks) was “no death occurred”. For the same compound, the “Animals found dead at 18 weeks of age” value ([2]; 300 mg/kg/day oral, groups of 10) was “two”, the “Life-prolonging effect (in words)” value ([2]; 100 and 300 mg/kg/day oral) was “significant life-prolonging effect” and the “Growth of M12 melanoma cells (tumor volume)” value [3] was “significantly inhibits growth of M12 melanoma cells”. For the same compound, the “Morphological change, Giemsa staining” value [4] was “differentiation into cells with granule was observed”, the “Differentiation of HL-60 cells into granulocytes (esterase staining)” value ([4]; naphthol AS-D chloroacetate method) was 70-85% and the “Induction of differentiation promoting effect” value [5] was 322.
